{
  "source": "paper PMC12669040",
  "about": "“Tumour-specific STING agonist synthesis via a two-component prodrug system” (Nature Chemistry, 2025)",
  "experiment": "Colorimetric alkylation rate constant assay with TNB^2− as non-specific thiol",
  "assay_type": "physicochemical",
  "set-up": "second-order: unit not given here",
  "details": "for remaining [B]: in µM",
  "key": {"[1]": {"details": "Time 2891 sec, [B]0 = 250, Replicates 1-3"}, "[2]": {"details": "Time 3071 sec, [B]0 = 250, Replicates 1-3"}, "[3]": {"details": "Time 3252 sec, [B]0 = 250, Replicates 1-3"}, "[4]": {"details": "Time 3433 sec, [B]0 = 250, Replicates 1-3"}, "[5]": {"details": "Time 3613 sec, [B]0 = 250, Replicates 1-3"}},
  "note": "Values joined by “and” are separate entries in the source; they are usually repeats but may differ in a detail not shown here. Equal values may be shown once.",
  "data": [
    {"smiles": "O=C(CCl)Nc1ccccc1C(=O)O", "note": "[Compound C5]", "values": [
      {"measurement": "remaining [B]", "setting": "Replicate 1, 723 sec, [B]0 = 250", "value": 246.309},
      {"measurement": "remaining [B]", "setting": "Replicate 1, 903 sec, [B]0 = 250", "value": 246.195},
      {"measurement": "remaining [B]", "setting": "Replicate 1, 1084 sec, [B]0 = 250", "value": 246.107},
      {"measurement": "remaining [B]", "setting": "Replicate 1, 1265 sec, [B]0 = 250", "value": 246.422},
      {"measurement": "remaining [B]", "setting": "Replicate 1, 1445 sec, [B]0 = 250", "value": 246.548},
      {"measurement": "remaining [B]", "setting": "Replicate 1, 1626 sec, [B]0 = 250", "value": 246.346},
      {"measurement": "remaining [B]", "setting": "Replicate 1, 1806 sec, [B]0 = 250", "value": 245.931},
      {"measurement": "remaining [B]", "setting": "Replicate 1, 1988 sec, [B]0 = 250", "value": 245.767},
      {"measurement": "remaining [B]", "setting": "Replicate 1, 2168 sec, [B]0 = 250", "value": 245.616},
      {"measurement": "remaining [B]", "setting": "Replicate 1, 2349 sec, [B]0 = 250", "value": 245.553},
      {"measurement": "remaining [B]", "setting": "Replicate 1, 2530 sec, [B]0 = 250", "value": 245.464},
      {"measurement": "remaining [B]", "setting": "Replicate 1, 2710 sec, [B]0 = 250", "value": 245.427},
      {"measurement": "remaining [B]", "setting": "Replicate 2, 542 sec, [B]0=250", "value": 245.747},
      {"measurement": "remaining [B]", "setting": "Replicate 2, 723 sec, [B]0=250", "value": 245.533},
      {"measurement": "remaining [B]", "setting": "Replicate 2, 903 sec, [B]0=250", "value": 245.445},
      {"measurement": "remaining [B]", "setting": "Replicate 2, 1084 sec, [B]0=250", "value": 245.382},
      {"measurement": "remaining [B]", "setting": "Replicate 2, 1265 sec, [B]0=250", "value": 245.218},
      {"measurement": "remaining [B]", "setting": "Replicate 2, 1445 sec, [B]0=250", "value": 245.168},
      {"measurement": "remaining [B]", "setting": "Replicate 2, 1626 sec, [B]0=250", "value": 245.067},
      {"measurement": "remaining [B]", "setting": "Replicate 2, 1806 sec, [B]0=250", "value": 244.991},
      {"measurement": "remaining [B]", "setting": "Replicate 2, 1988 sec, [B]0=250", "value": 244.928},
      {"measurement": "remaining [B]", "setting": "Replicate 2, 2168 sec, [B]0=250", "value": 244.827},
      {"measurement": "remaining [B]", "setting": "Replicate 2, 2349 sec, [B]0=250", "value": 244.739},
      {"measurement": "remaining [B]", "setting": "Replicate 2, 2530 sec, [B]0=250", "value": 244.676},
      {"measurement": "remaining [B]", "setting": "Replicate 2, 2710 sec, [B]0=250", "value": 244.563},
      {"measurement": "remaining [B]", "setting": "Replicate 3, 723 sec, [B]0=250", "value": 245.666},
      {"measurement": "remaining [B]", "setting": "Replicate 3, 903 sec, [B]0=250", "value": 245.565},
      {"measurement": "remaining [B]", "setting": "Replicate 3, 1084 sec, [B]0=250", "value": 245.427},
      {"measurement": "remaining [B]", "setting": "Replicate 3, 1265 sec, [B]0=250", "value": 245.389},
      {"measurement": "remaining [B]", "setting": "Replicate 3, 1445 sec, [B]0=250", "value": 245.313},
      {"measurement": "remaining [B]", "setting": "Replicate 3, 1626 sec, [B]0=250", "value": 245.149},
      {"measurement": "remaining [B]", "setting": "Replicate 3, 1806 sec, [B]0=250", "value": 245.137},
      {"measurement": "remaining [B]", "setting": "Replicate 3, 1988 sec, [B]0=250", "value": 245.036},
      {"measurement": "remaining [B]", "setting": "Replicate 3, 2168 sec, [B]0=250", "value": 244.986},
      {"measurement": "remaining [B]", "setting": "Replicate 3, 2349 sec, [B]0=250", "value": 244.872},
      {"measurement": "remaining [B]", "setting": "Replicate 3, 2530 sec, [B]0=250", "value": 244.809},
      {"measurement": "remaining [B]", "setting": "Replicate 3, 2710 sec, [B]0=250", "value": 244.62},
      {"measurement": "second-order", "setting": "[1]", "value": "0.0002299 and 0.0002236 and 0.0001928"},
      {"measurement": "remaining [B]", "setting": "[1]", "value": "244.62 and 245.338 and 244.475"},
      {"measurement": "second-order", "setting": "[2]", "value": "0.0002338 and 0.0002269 and 0.0001976"},
      {"measurement": "remaining [B]", "setting": "[2]", "value": "244.544 and 245.225 and 244.386"},
      {"measurement": "second-order", "setting": "[3]", "value": "0.0002365 and 0.0002296 and 0.0001987"},
      {"measurement": "remaining [B]", "setting": "[3]", "value": "244.481 and 245.2 and 244.323"},
      {"measurement": "second-order", "setting": "[4]", "value": "0.0002403 and 0.0002356 and 0.0002052"},
      {"measurement": "remaining [B]", "setting": "[4]", "value": "244.343 and 245.049 and 244.235"},
      {"measurement": "second-order", "setting": "[5]", "value": "0.0002452 and 0.0002384 and 0.0002063"},
      {"measurement": "remaining [B]", "setting": "[5]", "value": 244.28},
      {"measurement": "second-order", "setting": "Time 3794 sec, [B]0 = 250, Replicates 1-3", "value": "0.0002474 and 0.0002417 and 0.0002117"},
      {"measurement": "second-order", "setting": "Time 3974 sec, [B]0 = 250, Replicates 1-3", "value": "0.0002513 and 0.0002455 and 0.0002139"},
      {"measurement": "second-order", "setting": "Time 4155 sec, [B]0 = 250, Replicates 1-3", "value": "0.0002546 and 0.0002504 and 0.0002193"},
      {"measurement": "second-order", "setting": "Time 4336 sec, [B]0 = 250, Replicates 1-3", "value": "0.000259 and 0.0002537 and 0.000222"},
      {"measurement": "second-order", "setting": "Time 4516 sec, [B]0 = 250, Replicates 1-3", "value": "0.0002623 and 0.0002543 and 0.0002291"},
      {"measurement": "second-order", "setting": "Time 4697 sec, [B]0 = 250, Replicates 1-3", "value": "0.0002656 and 0.0002598 and 0.0002275"},
      {"measurement": "second-order", "setting": "Time 4878 sec, [B]0 = 250, Replicates 1-3", "value": "0.0002689 and 0.0002614 and 0.0002307"},
      {"measurement": "second-order", "setting": "Time 5058 sec, [B]0 = 250, Replicates 1-3", "value": "0.0002728 and 0.000267 and 0.0002367"},
      {"measurement": "second-order", "setting": "Time 5239 sec, [B]0 = 250, Replicates 1-3", "value": "0.0002767 and 0.0002692 and 0.0002406"},
      {"measurement": "second-order", "setting": "Time 5419 sec, [B]0 = 250, Replicates 1-3", "value": "0.0002789 and 0.0002725 and 0.0002433"},
      {"measurement": "second-order", "setting": "Time 5600 sec, [B]0 = 250, Replicates 1-3", "value": "0.0002833 and 0.0002764 and 0.0002471"}
    ]}
  ]
}
